Reference: EP1370263B1, “ANTIBIOTIC PHARMACEUTICAL COMPOSITION WITH LYSERGOL AS BIO-ENHANCER AND METHOD OF TREATMENT” (Council of Scientific and Industrial Research, priority 2002, dated 2003)

Tests used:
bacteria = experiment: Growth of bacteria in presence of lysergol alone (killing activity); format: cell-based; settings: 10 µg/ml, no antibiotic
Method: The invention is further explained in the form of following embodiments. • 1. Assay for bio-enhancement of anti-infective agents • (a) The minimum inhibitory concentration (MIC) of antibiotic is determined against Escherichia coli (ATCC 10536), Bacillus subtilis (ATCC 6051) and Mycobacterium smegmatis (ATCC 14468) in broth and disc diffusion assay. • (b) The antibiotics at concentrations 1/4, 1/3, 1/2 and equal to MIC are added alone and in combination with the test compound at varying concentrations on disc and in broth to evaluate the comparative inhibition. • (c) These combinations showing significant advantage or higher activity than antibiotic alone in terms of enhanced inhibition of bacterial growth (large inhibition zone in disc diffusion and effectivity of lower concentration in broth assay) are picked up for future testing. • (d) In broth assay the activity is quantified by counting number of viable cells in a given treatment and converted in fold enhancement by combination compared to antibiotic / drug alone in the killing percentage of cells. • (e) The pretreatment assay followed to determine whether the compound is required along with antibiotic to enhance its activity or even its withdrawal after treatment or prior to antibiotic treatment would benefit. […]

Escherichia coli = experiment: microbe, parasite or virus in culture
Method: The invention is further explained in the form of following embodiments. • 1. […] For this, the cells are treated with compound for 4 to 8 hours and then washed free of it by centrifugation and washing in sterile water. […] These experiments are being described in the following examples. […] In all the experiments the Lysergol concentration is kept at 10 µg/ml, unless it is specifically mentioned.

Bacillus subtilis = experiment: Broth assay, viable cell count: killing action of antibiotic alone and in combination with lysergol; format: cell-based, Bacillus subtilis (ATCC 6051)
Method: (§1) The invention is further explained in the form of following embodiments. • 1. Assay for bio-enhancement of anti-infective agents • (a) The minimum inhibitory concentration (MIC) of antibiotic is determined against Escherichia coli (ATCC 10536), Bacillus subtilis (ATCC 6051) and Mycobacterium smegmatis (ATCC 14468) in broth and disc diffusion assay. • (b) The antibiotics at concentrations 1/4, 1/3, 1/2 and equal to MIC are added alone and in combination with the test compound at varying concentrations on disc and in broth to evaluate the comparative inhibition. • (c) These combinations showing significant advantage or higher activity than antibiotic alone in terms of enhanced inhibition of bacterial growth (large inhibition zone in disc diffusion and effectivity of lower concentration in broth assay) are picked up for future testing. • (d) In broth assay the activity is quantified by counting number of viable cells in a given treatment and converted in fold enhancement by combination compared to antibiotic / drug alone in the killing percentage of cells. • (e) The pretreatment assay followed to determine whether the compound is required along with antibiotic to enhance its activity or even its withdrawal after treatment or prior to antibiotic treatment would benefit. For this, the cells are treated with compound for 4 to 8 hours and then washed free of it by centrifugation and washing in sterile water. This is followed by treatment with antibiotic as in steps b to d.
(§2) Bioactivity is experimented with the killing activities of different antibiotics against the bacteria singly and in combination with the test compound Lysergol following the method described above. These experiments are being described in the following examples. […] In all the experiments the Lysergol concentration is kept at 10 µg/ml, unless it is specifically mentioned.
Lysergol mediated enhancement in the killing action of antibiotics against Gram positive bacterium Bacillus subtilis.

Mycobacterium smegmatis = experiment: as above; format: cell-based, Mycobacterium smegmatis (ATCC 14468)
Method: as §1, §2
Lysergol mediated enhancement in the killing action of antibiotics against bacterium Mycobacterium smegmatis Table 3: […]

[1] = Transport of antibiotics across freshly isolated gut membrane in U-shaped tubes (absorbency in right arm); format: in vitro ADME
Method: We performed the experiments in U-shaped tubes with joint in between, where the freshly isolated gut membrane is fixed. In control tube only antibiotic solution (4ml @ 1mg/ml solution) is poured in the left arm where as in the right arm only water is poured. In the other tube in addition to the antibiotic solution lysergol (4µg @ 1µg/ml) is added.

[2] = Escherichia coli, read-out: Survival fraction of viable cells upon treatment with antibiotic alone

SMILES | killing of bacteria grown in presence of the compound as such (bacteria) | viability at 10 µg/mL (Escherichia coli; [2]) [%] | viability at 20 µg/mL (Escherichia coli; [2]) [%] | Fold enhancement in antibiotic activity (Escherichia coli; antibiotic 10 µg/ml + lysergol 10 µg/ml versus antibiotic alone) | Fold enhancement in antibiotic activity (Escherichia coli; antibiotic 20 µg/ml + lysergol 10 µg/ml versus antibiotic alone) | viability at 0.4 µg/mL (Bacillus subtilis; Bacillus subtilis, read-out: Survival fraction of viable cells upon treatment with antibiotic alone) [%] | Survival fraction of viable cells upon treatment with antibiotic + lysergol combination (Bacillus subtilis; antibiotic 0.4 µg/ml + lysergol 10 µg/ml) | Fold enhancement in antibiotic activity (Bacillus subtilis; antibiotic 0.4 µg/ml + lysergol 10 µg/ml versus antibiotic alone) | viability at 0.2 µg/mL (Mycobacterium smegmatis; Mycolicibacterium smegmatis, read-out: Survival fraction of viable cells upon treatment with antibiotic alone) [%] | Survival fraction of viable cells upon treatment with antibiotic + lysergol combination (Mycobacterium smegmatis; antibiotic 0.2 µg/ml + lysergol 10 µg/ml) | Fold enhancement in antibiotic activity (Mycobacterium smegmatis; antibiotic 0.2 µg/ml + lysergol 10 µg/ml versus antibiotic alone) | Increase in absorbency [1]
CN1C[C@H](CO)C=C2c3cccc4[nH]cc(c34)C[C@H]21 [Lysergol, 9,10-Didehydro-6-methylergoline-8-[…]-methanol] | no significant killing |  |  |  |  |  |  |  |  |  |  | 
CO[C@H]1/C=C/O[C@@]2(C)Oc3c(C)c(O)c4c(O)c(c(/C=N/N5CCN(C)CC5)c(O)c4c3C2=O)NC(=O)/C(C)=C\C=C\[C@H](C)[C@H](O)[C@@H](C)[C@@H](O)[C@@H](C)[C@H](OC(C)=O)[C@@H]1C [Rifampicin] |  | 35 to 45 | 25 to 30 | 6-12 fold | 3-5 fold | 8.5 to 9.6 | 0.021-0.028 | 3.0-4.6 fold | 45 to 54 | 0.09-0.10 | 4.5-6.0 fold | 0.131
